In patent publication US20250195503A1, “TETRACYCLIC COMPOUND AND USE THEREOF” (SHANGHAI SHIJIANG BIOTECHNOLOGY TECHNOLOGY CO., LTD., priority 2022, published 2025):

Legend:
[1] = tested on: Daoy cell transfected with virus vector carrying shRNA that could specificly induce the degradation of PPIF mRNA; assay: Mitochondria membrane potential difference by TMRM in Daoy cell transfected with virus vector carrying PPIF shRNA; type: cell-based, human; conditions: CsA −, H2O2 +
Daoy cell = assay: Mitochondria membrane potential difference by TMRM in Daoy cell; type: cell-based, human; conditions: CsA −, H2O2 +
Description: The mitochondria permeability transition pore (mPTP) was a non-specific channel on the inner membrane of mitochondria, which could allow small molecules with molecular less than 1.5KD to pass freely, and its activity was affected by peroxides (such as H2O2), pH and calcium ions in mitochondria. […] For cells with active mitochondria permeability transition pore, adding peroxide (such as H2O2) could increase the activity of mitochondria permeability transition pore, resulting in a decrease in mitochondria membrane potential.

[2] = tested on: Daoy cell transfected with empty virus vector without carrying shRNA; assay: Mitochondria membrane potential difference by TMRM in Daoy cell transfected with empty virus vector; type: cell-based, human; conditions: CsA −, H2O2 +
mPTP-active Daoy cell = assay: Inhibitory effect (IC50) on mPTP-active Daoy cell, Promega CellTiter-Glo kit; type: cell-based; conditions: Homo sapiens, Daoy cell transfected with empty virus vector without PPIF shRNA
ov-NNMT NCI-H82 cell = assay: Inhibitory effect (IC50) on ov-NNMT NCI-H82 cell, Promega CellTiter-Glo kit; type: cell-based; conditions: Homo sapiens, NNMT protein overexpressed NCI-H82 cell
Con-NCI-H82 cell = assay: Inhibitory effect (IC50) on Con-NCI-H82 cell, Promega CellTiter-Glo kit; type: cell-based; conditions: Homo sapiens, NCI-H82 cell transfected with empty virus vector
sh-DNMT1 NCI-H82 cell = assay: Inhibitory effect (IC50) on sh-DNMT1 NCI-H82 cell, Promega CellTiter-Glo kit; type: cell-based; conditions: Homo sapiens, DNMT1 knocked down NCI-H82 cell
mPTP-inactive Daoy cell = assay: Inhibitory effect (IC50) on mPTP-inactive Daoy cell (PPIF shRNA), Promega CellTiter-Glo kit; type: cell-based; conditions: Homo sapiens, Daoy cell transfected with virus vector carrying PPIF shRNA

IC50 (ov-NNMT NCI-H82 cell) [µM]	IC50 (Con-NCI-H82 cell) [µM]	IC50 (sh-DNMT1 NCI-H82 cell) [µM]	SMILES	Relative TMRM signal intensity (%), mean value [1] [%]	Relative TMRM signal intensity (%), mean value (Daoy cell) [%]	Relative TMRM signal intensity (%), mean value [2] [%]	IC50 (mPTP-active Daoy cell) [µM]	IC50 (mPTP-inactive Daoy cell) [µM]
5.56	2.18	5.98	CCC1c2c(ccc(OC)c2OC)C=C2c3cc4c(cc3CCN21)OCO4 (stereo not shown) [compound AB31883]				5.64	2.45
16.8	6.91	24.2	COc1ccc2c(c1OC)C(C(F)(F)F)N1CCc3cc4c(cc3C1=C2)OCO4 (stereo not shown) [compound AB35403]				60.1	28.6
8.48	3.22	9.66	COc1ccc2c(c1OC)C(C)N1CCc3cc4c(cc3C1=C2)OCO4 (stereo not shown) [compound AB31886]				14.3	5.74
7.04	2.33	14.3	COc1ccc2c(c1OC)C(C(Cl)(Cl)Cl)N1CCc3cc4c(cc3C1=C2)OCO4 (stereo not shown) [compound AB31714]				26.7	12.5
6.32	2.31	8.64	CCCC1c2c(ccc(OC)c2OC)C=C2c3cc4c(cc3CCN21)OCO4 (stereo not shown) [compound AB31884]				5.76	2.71
4.13	1.12	5.99	COc1ccc2c(c1OC)C(C(C)C)N1CCc3cc4c(cc3C1=C2)OCO4 (stereo not shown) [compound AB31885]				6.43	3.17

The remaining lines, values behind:

SMILES	IC50 (ov-NNMT NCI-H82 cell) [µM]	IC50 (Con-NCI-H82 cell) [µM]	IC50 (sh-DNMT1 NCI-H82 cell) [µM]	Relative TMRM signal intensity (%), mean value [1] [%]	Relative TMRM signal intensity (%), mean value (Daoy cell) [%]	Relative TMRM signal intensity (%), mean value [2] [%]	IC50 (mPTP-active Daoy cell) [µM]	IC50 (mPTP-inactive Daoy cell) [µM]
OO [H2O2]				95	82	79		
COc1ccc2c(c1OC)CN1CCc3cc4c(cc3C1=C2)OCO4 [compound AB31713]			14.6				25	12.5
COc1ccc2c(c1OC)C(C1CCCCC1)N1CCc3cc4c(cc3C1=C2)OCO4 (stereo not shown) [compound AB31893]							5.14	2.5
COc1ccc2c(c1OC)C(C1CCCC1)N1CCc3cc4c(cc3C1=C2)OCO4 (stereo not shown) [compound AB31900]			6.58				5.37	2.56
C=CCC1c2c(ccc(OC)c2OC)C=C2c3cc4c(cc3CCN21)OCO4 (stereo not shown) [compound AB31891]	6.55	2.06	5.73				6.22	3.12
CCCCCCC1c2c(ccc(OC)c2OC)C=C2c3cc4c(cc3CCN21)OCO4 (stereo not shown) [compound AB35435]	2.66	0.72	3.65				1.32	0.69
C=CCCC1c2c(ccc(OC)c2OC)C=C2c3cc4c(cc3CCN21)OCO4 (stereo not shown) [compound AB31882]	11.6	5.16	18.8				19.3	9.22
CCCCC1c2c(ccc(OC)c2OC)C=C2c3cc4c(cc3CCN21)OCO4 (stereo not shown) [compound AB31875]	10.1	3.27	12.3				14.6	6.25
